The test system of experiment [1] is human bronchial epithelial cells. In words: Clonogenic cell survival assay, bronchial epithelial cells with PDGF-AB (Example 3). The note with it: 10 ng/ml PDGF-AB, 14 days; for effect on clonogenic survival / PDGF inhibition (words): 0-10 μM. The experiment is classed as cell-based. How it is done: (§1) Primary isolated human bronchial epithelial cells (NHBE) were used in this assay sourced from the American Tissue Culture Collection (Normal, Human (ATCC® BEAS-2B™)) and were cultured up to passage 6. […].
A clonogenic cell survival assay determines the ability of a cell to proliferate indefinitely. Cells were plated with increasing numbers (102 to 5×10^4) in 25 cm^2 flasks. SU9518, SU9518, a known inhibitor PDGF that has shown the ability to reduce radiation-induced fibroblast and endothelial cell activation, and phenylcapsaicin were used as positive controls. The cells were incubated with 0-10 μM (3% DMSO aqueous) of phenylcapsaicin, SU9518, and compounds 1 and 3-7 separately in the presence of 10 ng/ml PDGF-AB (Sigma Aldrich). The flasks were returned to the incubator for 14 days, after which they were stained with crystal violet (Sigma Aldrich). The colonies were counted and the surviving percentage was determined for clonogenic survival after correcting for plating efficiency.

Experiment [2] has the same test system. The experiment is described as follows: Clonogenic cell survival assay, bronchial epithelial cells with PDGF-AB (Example 4). Type of experiment: cell-based. The conditions noted are these: 10 ng/ml PDGF-AB, 14 days; for effect on clonogenic survival / PDGF inhibition (words): 0-10 μM. How it is done: as §1
The effects of Phenylcapsaicin (2) on clonogenic survival of bronchial epithelial cells, by plating the cells with increasing numbers (102 to 5×104) in 25 cm^2 flasks were investigated. SU9518* and Phenylcapsaicin were used as positive controls. The cells were incubated with 0-10 μM (3% DMSO aqueous) of Phenylcapsaicin, SU9518, and compounds 8-12 separately in the presence of 10 ng/ml PDGF-AB (Sigma Aldrich). The flasks were returned to the incubator for 14 days, after which they were stained with crystal violet (Sigma Aldrich). The colonies were counted and the surviving percentage was determined for clonogenic survival after correcting for plating efficiency. The synthetic analogs were all calculated at 100% purity for molar concentrations.

Molecules are shown by their SMILES. Entries after “also recorded” stand apart in the source; their conditions may differ.

As for `COc1cc(CNC(=O)CCCC/C=C/C(C)C)ccc1O` [Compound 1, capsaicin], the “effect on clonogenic survival / PDGF inhibition (words)” value in experiment [1] was “did not show any PDGF inhibition”; in experiment [1] (listed as capsaicin), “no inhibition of PDGF was observed”; in experiment [2], “no inhibition of PDGF was observed”. In addition, the “Clonogenic Survival Assay (percent)” value in experiment [1] (0.10 μM) is 97%; in experiment [1] (0.50 μM) it was 97%; in experiment [1] (1.00 μM) it was 95%; in experiment [1] (2.00 μM), 96%; in experiment [1] (5.00 μM) it was 96%; in experiment [1] (10.00 μM), 95%. For the same compound, the “Clonogenic Survival Assay (percent)” value in experiment [1] (10.00 μM, listed as capsaicin) was determined as 95%; in experiment [2] (0.10 uM), 97%; in experiment [2] (0.50 uM), 98%; in experiment [2] (1.00 uM), 95%; in experiment [2] (2.00 uM), 96%; in experiment [2] (5.00 uM) it was 96%. Further, in experiment [2] (10.00 uM), the “Clonogenic Survival Assay (percent)” value amounted to 95%.

Turning to `COc1cc(CNC(=O)CCCCC#CC2CCCCC2)ccc1O` [Compound 3], the “effect on clonogenic survival / PDGF inhibition (words)” value is given as “some modest activity” in experiment [1] and “PDGF inhibition activity dropped significantly” in experiment [1] (listed as compound 3). Besides, the “Clonogenic Survival Assay (percent)” value in experiment [1] (0.10 μM) stood at 91%; in experiment [1] (0.50 μM), 83%; in experiment [1] (1.00 μM), 77%; in experiment [1] (2.00 μM), 74%; in experiment [1] (5.00 μM), 71%; in experiment [1] (10.00 μM), 73%. In addition, in experiment [1] (10.00 μM, listed as compound 3), the “Clonogenic Survival Assay (percent)” value came to 73%.

Regarding `COc1cc(CNC(=O)CCCCC#CC(C)(C)C)ccc1O` [Compound 4], the “effect on clonogenic survival / PDGF inhibition (words)” value in experiment [1] is “did not show any PDGF inhibition”; in experiment [1] (listed as compound 4) it was “completely eliminated the PDGF inhibiting activity”. The “Clonogenic Survival Assay (percent)” value in experiment [1] (0.10 μM) was found to be 97%; in experiment [1] (0.50 μM), 95%; in experiment [1] (1.00 μM), 97%; in experiment [1] (2.00 μM), 96%; in experiment [1] (5.00 μM), 91%; in experiment [1] (10.00 μM), 91%. Besides, the “Clonogenic Survival Assay (percent)” value in experiment [1] (10.00 μM, listed as compound 4) was 91%.

Turning to `COc1cc(CNC(=O)CCCCC#Cc2ccccc2)ccc1OC(C)=O` [Compound 5, 2-Methoxy-4-[(6-phenyl-5-hexynylcarbonylamino)methyl]phenyl acetate], the “effect on clonogenic survival / PDGF inhibition (words)” value in experiment [1] is “greater PDGF inhibition than both the parent PheCap (2) and the positive control SU9518; also recorded: significant improvement in PDGF inhibiting activity”; in experiment [1] (listed as compound 5) it was “significant improvement in PDGF inhibiting activity”. Further, the “Clonogenic Survival Assay (percent)” value in experiment [1] (0.10 μM) worked out at 78%; in experiment [1] (0.50 μM), 60%; in experiment [1] (1.00 μM), 45%; in experiment [1] (2.00 μM), 32%; in experiment [1] (5.00 μM) it was 30%; in experiment [1] (10.00 μM) it was 20%. Further, in experiment [1] (10.00 μM, listed as compound 5), the “Clonogenic Survival Assay (percent)” value was 20%.

Consider `COc1cc(CNC(=O)CCCCC#CC2CCCCC2)ccc1OC(C)=O` [Compound 6], for which the “effect on clonogenic survival / PDGF inhibition (words)” value is “some modest activity” in experiment [1] and “gave better results than compound 3” in experiment [1] (listed as compound 6). In addition, the “Clonogenic Survival Assay (percent)” value in experiment [1] (0.10 μM) turned out to be 89%; in experiment [1] (0.50 μM) it was 82%; in experiment [1] (1.00 μM) it was 76%; in experiment [1] (2.00 μM), 64%; in experiment [1] (5.00 μM), 69%; in experiment [1] (10.00 μM), 61%.

As to `COc1cc(CNC(=O)CCCCC#CC(C)(C)C)ccc1OC(C)=O` [Compound 7], the “effect on clonogenic survival / PDGF inhibition (words)” value was “did not show any PDGF inhibition” in experiment [1] and “could not mediate the negative effects of the tert-butyl group” in experiment [1] (listed as compound 7). For the same compound, the “Clonogenic Survival Assay (percent)” value in experiment [1] (0.10 μM) was 99%; in experiment [1] (0.50 μM), 96%; in experiment [1] (1.00 μM) it was 96%; in experiment [1] (2.00 μM) it was 91%; in experiment [1] (5.00 μM) it was 94%; in experiment [1] (10.00 μM) it was 93%.

Regarding `COc1cc(CNC(=O)CCCCCCc2ccccc2)ccc1O` [Compound 8, N-[(4-Hydroxy-3-methoxyphenyl)methyl]7-phenylheptanamide], the “effect on clonogenic survival / PDGF inhibition (words)” value in experiment [2] is reported as “did not show any reduction in clonogenic cell survival”. Further, the “Clonogenic Survival Assay (percent)” value in experiment [2] (0.10 uM) was determined as 97%; in experiment [2] (0.50 uM), 100%; in experiment [2] (1.00 uM), 97%; in experiment [2] (2.00 uM), 95%; in experiment [2] (5.00 uM) it was 96%; in experiment [2] (10.00 uM), 97%.

Regarding `C#CCCCCC(=O)NCc1ccc(O)c(OC)c1` [Compound 9], the “effect on clonogenic survival / PDGF inhibition (words)” value in experiment [2] is “did not show any reduction in clonogenic cell survival”. For the same compound, the “Clonogenic Survival Assay (percent)” value in experiment [2] (0.10 uM) worked out at 100%; in experiment [2] (0.50 uM), 97%; in experiment [2] (1.00 uM) it was 99%; in experiment [2] (2.00 uM) it was 96%; in experiment [2] (5.00 uM), 96%; in experiment [2] (10.00 uM), 99%.

For the compound `COc1cc(CNC(=O)CCCCC#Cc2ccc([N+](=O)[O-])cc2)ccc1O` [Compound 10, N-[(4-Hydroxy-3-methoxyphenyl)methyl]-7-(p-nitrophenyl)-6-heptynamide], the “Clonogenic Survival Assay (percent)” value in experiment [2] (0.10 uM) worked out at 73%; in experiment [2] (0.50 uM), 55%; in experiment [2] (1.00 uM), 51%; in experiment [2] (2.00 uM) it was 40%; in experiment [2] (5.00 uM) it was 41%; in experiment [2] (10.00 uM), 39%.

As for `COc1ccc(C#CCCCCC(=O)NCc2ccc(O)c(OC)c2)cc1` [Compound 11, N-[(4-Hydroxy-3-methoxyphenyl)methyl]-7-(p-methoxyphenyl)-6-heptynamide], the “effect on clonogenic survival / PDGF inhibition (words)” value is recorded as “higher reduction than the lead phenylcapsaicin” in experiment [2] and “further improved” in experiment [2] (listed as compound 11). For the same compound, the “Clonogenic Survival Assay (percent)” value in experiment [2] (0.10 uM) amounted to 72%; in experiment [2] (0.50 uM), 57%; in experiment [2] (1.00 uM), 51%; in experiment [2] (2.00 uM), 33%; in experiment [2] (5.00 uM) it was 28%; in experiment [2] (10.00 uM) it was 21%.

`COc1cc(CNC(=O)CCCCC#Cc2cccc3ccccc23)ccc1O` [Compound 12, N-[(4-Hydroxy-3-methoxyphenyl)methyl]-7-(1-naphthyl)-6-heptynamide]: the “Clonogenic Survival Assay (percent)” value in experiment [2] (0.10 uM) was found to be 81%; in experiment [2] (0.50 uM) it was 79%; in experiment [2] (1.00 uM) it was 61%; in experiment [2] (2.00 uM) it was 53%; in experiment [2] (5.00 uM) it was 48%; in experiment [2] (10.00 uM) it was 32%.

(Values after US20240277637A1, “CAPSAICIN DERIVATIVES IN THE TREATMENT OF IDIOPATHIC PULMONARY FIBROSIS” (aXichem AB, priority 2021, published 2024).)
